Laboratory results published in patent US8710184B2, “Motilin-like peptide compound having transmucosal absorbability imparted thereto” (Daiichi Sankyo Company, Limited, priority 2009, dated 2014).
Starred links: 1 amine or outer side, 2 acyl side, 3 side chain; linkers in the order of their positions; H or OH if unused. Non-standard residues stand in square brackets, D forms with d. Residues, ends and D or L forms follow the SMILES beside them. No end group written: not given here. X1 = CC(C)[C@@H](C(=O)[*:2])N(C[C@@H](N)Cc1ccccc1)[*:1]; β3hPhg = O=C(C[C@@H](N[*:1])c1ccccc1)[*:2]; Sar = CNCC(=O)O

Experiment: Pharmacokinetic experiment on pulmonarily administered native motilin and motilin derivative compounds in rats (RIA)
Format: in vivo, rat
Conditions: pulmonary administration; for Cmax / AUC: male, SD, plasma, inhaled or intranasal, 25 ug/animal; for Cmax / AUC / BA: 25 μg/rat; for AUC: trapezoidal method; for BA: relative to AUC of intravenous native motilin
Experimental: As test animals, 7- to 10-wk old male SD rats (purchased from CHARLES RIVER LABORATORIES JAPAN, INC.) that consisted of 3 rats per a group were subjected to the following experiment. Native motilin or motilin derivative compounds were dissolved in an aqueous solution of 0.1 N acetic acid to prepare a solution at a concentration of 1 mg/mL and 25 μL of the solution was administered into the polyethylene tube through the trachea by means of an intratracheal liquid spraying device (MicroSprayer; product of Penn Century). […] In the measurement, the respective derivatives were used as standard substances to construct calibration curves for determining the plasma levels.
Using these values, bioavailability (BA (%)) was calculated by the following equation: BA(%)=[(AUC/Dose)/(AUC(motilin—iv)/Dose(motilin—iv))]×100 • AUC: AUC (ng·min/mL) after pulmonary administration • Dose: dose (μg/kg) in pulmonary administration • AUC (motilin_iv): AUC (ng·min/mL) after intravenous administration of native motilin • Dose (motilin_iv): dose (μg/kg) in intravenous administration of native motilin.

Compound	Cmax	AUC	BA	BA (listed as comparative compound 2)	BA (listed as compound 1)	BA (listed as compound 6)	profile of plasma concentration compared with native motilin (FIG. 3)
CC[C@H](C)[C@H](NC(=O)[C@@H]1CCCN1C(=O)[C@@H](NC[C@@H](N)Cc1ccccc1)C(C)C)C(=O)N[C@@H](Cc1ccccc1)C(=O)N[C@H](C(=O)N[C@@H](Cc1ccc(O)cc1)C(=O)NCC(=O)N[C@@H](CCC(=O)O)C(=O)N[C@@H](CC(C)C)C(=O)N[C@@H](CCC(N)=O)C(=O)N[C@@H](CCCNC(=N)N)C(=O)N[C@@H](CCSC)C(=O)N[C@@H](CCC(N)=O)C(=O)N[C@@H](CCC(=O)O)C(=O)N[C@@H](CCCCN)C(=O)N[C@@H](CCC(=O)O)C(=O)N[C@@H](CCCNC(=N)N)C(=O)N[C@@H](CC(N)=O)C(=O)N[C@@H](CCCCN)C(=O)NCC(=O)N[C@@H](CCC(N)=O)C(=O)O)[C@@H](C)O [Comparative compound 2, reference compound] (H-[X1]PIFTYGELQRMQEKERNKGQ-OH; N-terminus and C-terminus assumed)	9.3 ± 3.09 ng/mL	1.98 ng·h/mL	4.1 ± 1.6%	4.1%			
CC[C@H](C)[C@H](NC(=O)[C@@H]1CCCN1C(=O)[C@@H](NC(=O)[C@@H](N)Cc1ccccc1)C(C)C)C(=O)N[C@@H](Cc1ccccc1)C(=O)N[C@H](C(=O)N[C@@H](Cc1ccc(O)cc1)C(=O)NCC(=O)N[C@@H](CCC(=O)O)C(=O)N[C@@H](CC(C)C)C(=O)N[C@@H](CCC(N)=O)C(=O)N[C@@H](CCCNC(=N)N)C(=O)N[C@@H](CCSC)C(=O)N[C@@H](CCC(N)=O)C(=O)N[C@@H](CCC(=O)O)C(=O)N[C@@H](CCCCN)C(=O)N[C@@H](CCC(=O)O)C(=O)N[C@@H](CCCNC(=N)N)C(=O)N[C@@H](CC(N)=O)C(=O)N[C@@H](CCCCN)C(=O)N1CCC[C@H]1C(=O)N[C@@H](CCC(N)=O)C(=O)O)[C@@H](C)O [Compound 1]	9.09 ± 0.53 ng/mL	1.99 ng·h/mL	5.3 ± 0.6%		5.3%		
CC[C@H](C)[C@H](NC(=O)[C@@H]1CCCN1C(=O)[C@@H](NC(=O)C[C@@H](N)c1ccccc1)C(C)C)C(=O)N[C@@H](Cc1ccccc1)C(=O)N[C@H](C(=O)N[C@@H](Cc1ccc(O)cc1)C(=O)NCC(=O)N[C@@H](CCC(=O)O)C(=O)N[C@@H](CC(C)C)C(=O)N[C@@H](CCC(N)=O)C(=O)N[C@@H](CCCNC(=N)N)C(=O)N[C@@H](CC(C)C)C(=O)N[C@@H](CCC(N)=O)C(=O)N[C@@H](CCC(=O)O)C(=O)N[C@@H](CCCCN)C(=O)N[C@@H](CCC(=O)O)C(=O)N[C@@H](CCCNC(=N)N)C(=O)N1CCC[C@H]1C(=O)N[C@@H](CCCCN)C(=O)N1CCC[C@H]1C(=O)N[C@@H](CCC(N)=O)C(=O)O)[C@@H](C)O [Compound 4] (β3hPhg-VPIFTYGELQRLQEKERPKPQ-OH; N-terminus and C-terminus assumed)	14.6 ± 8.23 ng/mL	4.69 ng·h/mL	11.0 ± 7.2%				
CC[C@H](C)[C@H](NC(=O)CN(C)C(=O)[C@@H](NC(=O)C[C@@H](N)c1ccccc1)C(C)C)C(=O)N[C@@H](Cc1ccccc1)C(=O)N[C@H](C(=O)N[C@@H](Cc1ccc(O)cc1)C(=O)NCC(=O)N[C@@H](CCC(=O)O)C(=O)N[C@@H](CC(C)C)C(=O)N[C@@H](CCC(N)=O)C(=O)N[C@@H](CCCNC(=N)N)C(=O)N[C@@H](CC(C)C)C(=O)N[C@@H](CCC(N)=O)C(=O)N[C@@H](CCC(=O)O)C(=O)N[C@@H](CCCCN)C(=O)N[C@@H](CCC(=O)O)C(=O)N[C@@H](CCCNC(=N)N)C(=O)N1CCC[C@H]1C(=O)N[C@@H](CCCCN)C(=O)N1CCC[C@H]1C(=O)N[C@@H](CCC(N)=O)C(=O)O)[C@@H](C)O [Compound 5, Phg(C#CH2) Val Sar Ile Phe Thr Tyr Gly Glu Leu Gln Arg Leu Gln Glu Lys Glu Arg Pro Lys Pro Gln] (β3hPhg-V[Sar]IFTYGELQRLQEKERPKPQ-OH; N-terminus and C-terminus assumed)	14.8 ± 7.78 ng/mL	2.92 ng·h/mL	5.7 ± 2.9%				
CC[C@H](C)[C@H](NC(=O)[C@@H]1CCCN1C(=O)[C@@H](NC[C@@H](N)Cc1ccccc1)C(C)C)C(=O)N[C@@H](Cc1ccccc1)C(=O)N[C@H](C(=O)N[C@@H](Cc1ccc(O)cc1)C(=O)NCC(=O)N[C@@H](CCC(=O)O)C(=O)N[C@@H](CC(C)C)C(=O)N[C@@H](CCC(N)=O)C(=O)N[C@@H](CCCNC(=N)N)C(=O)N[C@@H](CC(C)C)C(=O)N[C@@H](CCC(N)=O)C(=O)N[C@@H](CCC(=O)O)C(=O)N[C@@H](CCCCN)C(=O)N[C@@H](CCC(=O)O)C(=O)N[C@@H](CCCNC(=N)N)C(=O)N[C@@H](CC(N)=O)C(=O)N[C@@H](CCCCN)C(=O)N1CCC[C@H]1C(=O)N[C@@H](CCC(N)=O)C(=O)O)[C@@H](C)O [Compound 7] (H-[X1]PIFTYGELQRLQEKERNKPQ-OH; N-terminus and C-terminus assumed)	17.2 ± 7.18 ng/mL	3.24 ng·h/mL	6.4 ± 1.3%				
FVPIFTYGDLQRLQEKERPKPQ [Compound 3]	24.6 ± 5.8 ng/mL	4.7 ng·h/mL	9.5 ± 0.9%				

Now from value to compound:

Cmax	AUC	BA	BA (listed as comparative compound 2)	BA (listed as compound 1)	BA (listed as compound 6)	profile of plasma concentration compared with native motilin (FIG. 3)	Compound
34.2 ± 20 ng/mL	6.34 ng·h/mL	11.5 ± 6.1%			11.5%	high peak levels	CC[C@H](C)[C@H](NC(=O)[C@@H]1CCCN1C(=O)[C@@H](NC[C@@H](N)Cc1ccccc1)C(C)C)C(=O)N[C@@H](Cc1ccccc1)C(=O)N[C@H](C(=O)N[C@@H](Cc1ccc(O)cc1)C(=O)NCC(=O)N[C@@H](CCC(=O)O)C(=O)N[C@@H](CC(C)C)C(=O)N[C@@H](CCC(N)=O)C(=O)N[C@@H](CCCNC(=N)N)C(=O)N[C@@H](CCSC)C(=O)N[C@@H](CCC(N)=O)C(=O)N[C@@H](CCC(=O)O)C(=O)N[C@@H](CCCCN)C(=O)N[C@@H](CCC(=O)O)C(=O)N[C@@H](CCCNC(=N)N)C(=O)N[C@@H](CC(N)=O)C(=O)N[C@@H](CCCCN)C(=O)N1CCC[C@H]1C(=O)N[C@@H](CCC(N)=O)C(=O)O)[C@@H](C)O [Compound 6] (H-[X1]PIFTYGELQRMQEKERNKPQ-OH; N-terminus and C-terminus assumed)
30.1 ± 15.8 ng/mL	9.42 ng·h/mL	18.7 ± 10.7%					CC[C@H](C)[C@H](NC(=O)[C@@H]1CCCN1C(=O)[C@@H](NC[C@@H](N)Cc1ccccc1)C(C)C)C(=O)N[C@@H](Cc1ccccc1)C(=O)N[C@H](C(=O)N[C@@H](Cc1ccc(O)cc1)C(=O)NCC(=O)N[C@@H](CC(=O)O)C(=O)N[C@@H](CC(C)C)C(=O)N[C@@H](CCC(N)=O)C(=O)N[C@@H](CCCNC(=N)N)C(=O)N[C@@H](CC(C)C)C(=O)N[C@@H](CCC(N)=O)C(=O)N[C@@H](CCC(=O)O)C(=O)N[C@@H](CCCCN)C(=O)N[C@@H](CCC(=O)O)C(=O)N[C@@H](CCCNC(=N)N)C(=O)N1CCC[C@H]1C(=O)N[C@@H](CCCCN)C(=O)N1CCC[C@H]1C(=O)N[C@@H](CCC(N)=O)C(=O)O)[C@@H](C)O [Compound 12] (H-[X1]PIFTYGDLQRLQEKERPKPQ-OH; N-terminus and C-terminus assumed)
18.4 ± 10.4 ng/mL	3.09 ng·h/mL	5.6 ± 1.5%					CC[C@H](C)[C@H](NC(=O)[C@@H]1CCCN1C(=O)[C@@H](NC[C@@H](N)Cc1ccccc1)C(C)C)C(=O)N[C@@H](Cc1ccccc1)C(=O)N[C@H](C(=O)N[C@@H](Cc1ccc(O)cc1)C(=O)NCC(=O)N[C@@H](CC(=O)O)C(=O)N[C@@H](CC(C)C)C(=O)N[C@@H](CCC(N)=O)C(=O)N[C@@H](CCCNC(=N)N)C(=O)N[C@@H](CCSC)C(=O)N[C@@H](CCC(N)=O)C(=O)N[C@@H](CCC(=O)O)C(=O)N[C@@H](CCCCN)C(=O)N[C@@H](CCC(=O)O)C(=O)N[C@@H](CCCNC(=N)N)C(=O)N1CCC[C@H]1C(=O)N[C@@H](CCCCN)C(=O)N1CCC[C@H]1C(=O)N[C@@H](CCC(N)=O)C(=O)O)[C@@H](C)O [Compound 13] (H-[X1]PIFTYGDLQRMQEKERPKPQ-OH; N-terminus and C-terminus assumed)
